Measurements as given in patent US20240131356A1, “COMBINATION OF INTRACELLULAR AND EXTRACELLULAR PHOTOSENSITIZERS FOR TREATMENT OF BACTERIAL INFECTION” (priority 2021, published 2024).
Like-named read-outs stand apart in the source and are kept apart here.

Tested on: hrtAB promoter (HssRS activation; CgoX activation)
Test: XylE colorimetric reporter assay (phrt.xylE), activation of HssRS / hrtAB expression
Type: cell-based, Staphylococcus aureus strain Newman
Details: for Specifc Activity @ 30 μM: 30 μM compound, XylE activity normalized to protein; for Specifc Activity @ 30 μM / Specifc Activity (nMol/min*mg), data collected at 10 uM: 6 h subculture; for Specifc Activity (nMol/min*mg), data collected at 10 uM: footnote a: data collected at 10 uM; for XylE activity in comparison to '8882 at 10 μM: six-hour exposure (FIG. 2A); for XylE activity in comparison to '8882 at 30 μM: six-hour exposure (FIG. 2B); for EC50: Staphylococcus aureus, NEWMAN; for XylE activity (ability to activate HssRS) in comparison to '8882: dose not stated
Procedure: To maximize the production of coproporphyrin III and thereby increase blue-light mediated killing of S. aureus, synthesized analogs of VU0038882 were tested. To determine the relative efficacy of each analog, a Newman strain of S. aureus, transformed with the phrt.xylE (11) reporter vector was used. This reporter allows for colorimetric assessment of intracellular heme production. To perform the assay, each individual analog was added to 3 mL of TSB+10 μg/mL chloramphenicol to reach a concentration of 30 μM, and then 700 μL of this newly made 30 μM solution was added to 1.3 mL of remaining TSB+10 μg/mL chloramphenicol media to create the 10 μM concentration. Either 10 μM or 30 μM concentrations of compounds in medium were then aliquoted into three 0.5 mL replicate tubes. Three separate 16- to 18-hour overnight subcultures from isolated colonies were back-diluted 1:100 into the tubes creating three biological replicates and were subcultured for 6 hours at 37° C. and 180 rpm. After incubation, the cells were pelleted at 16,400 g for 5 minutes and the supernatant aspirated before washing with 0.5 mL of 20 mM potassium phosphate wash buffer. After pelleting the cells again at 16,400 g for 5 minutes the wash buffer was aspirated, and the pellets were stored at −80° C. until further use.
When the cells were ready to be lysed and data collected, samples were removed from the −80° C. freezer, allowed to thaw, and resuspended in 150 μL of lysis buffer (100 mM potassium phosphate pH=8.0, 10% v/v acetone, 20 μg/mL lysostaphin) before incubation in a 37° C. bead bath for 20 minutes and then cooled for 5 minutes on ice. The samples were then centrifuged at 16,400 g and 4° C. for 30 minutes to separate the pellet from the lysate, which was then placed into a 96-well microtiter plate and kept on ice. The lysate from each sample was pipetted into 20 μL aliquots on a round-bottom or flat-bottom 96-well plate on ice. The round bottom plate was labeled for bicinchoninic acid assay (BCA) protein content analysis, and 10 μL of BCA standards was added to extra wells on the plate. Protein quantification was performed using a Pierce BCA Protein Assay Kit as per the manufacturer's instructions. While the BCA plate was in the incubator, the flat-bottom plate was prepared by thawing 1 M catechol on ice and making 100 mM potassium phosphate (pH=8.0) assay buffer. After preparing a kinetic read at 375 nm for 10 minutes with a minimal interval between reads, the catechol was diluted 1:1,000 into the assay buffer and quickly dispensed into a sterile basin, then 200 μL of the solution was pipetted into each well using a multichannel pipette. All data were exported into Excel software (Microsoft) and analyzed for specific activity of each compound and activity relative to VU0038882 controls.
After 219 analogs had been screened, the compounds with the best percent VU0038882 activity were tested again following the same protocol, but with twelve replicates per concentration with data expressed as averages ±the standard deviation (SD). Additionally, the top-performing compounds were tested using the XylE protocol with a concentration gradient to determine their half maximal effective concentration (EC50) values.
Photosensitizer-conjugated antibodies expose bacteria to reactive oxygen species (ROS) externally, but this treatment can be paired with small molecule treatment to generate ROS internally via heme biosynthesis pathway intermediates. To discover new compounds capable of activating CgoX and/or displaying less toxicity to eukaryotic cells, a medicinal chemistry campaign was initatied based on systematic alternation of the '8882 structure. Each new analog was tested for the ability to activate HssRS using the previously described XylE colorimetric assay that employs a reporter construct in which the hrtAB promoter is fused to a xylE reporter gene. […]

SMILES | Specifc Activity @ 30 μM [nmol/min/mg] | further results
Cc1ccc(-c2cc(-c3ccc4ccccc4c3O)n[nH]2)o1 ['9624, 2-(5-(5-Methylfuran-2-yl)-1H-pyrazol-3-yl)naphthalen-1-ol] | 1.152 ± 0.382 | 
Cc1c(-c2ccccc2O)n[nH]c1-c1ccco1 [Compound 0394, 2-(5-(Furan-2-yl)-4-methyl-1H-pyrazol-3-yl)phenol] | 0.0287 ± 0.0198 | 
Oc1c(-c2cc(-c3cnco3)[nH]n2)ccc2ccccc12 [′0071, 2-(5-(Oxazol-5-yl)-1H-pyrazol-3-yl)naphthalen-1-ol] |  | Specifc Activity (nMol/min*mg), data collected at 10 uM: 1.152 ± 0.263^a nMol/min*mg
CC(C)Nc1cc(-c2ccc3ccccc3c2O)n[nH]1 [′0457, 2-(5-(isopropylamino)-1H-pyrazol-3-yl)naphthalen-1-ol] | 0.5082 ± 0.770 | 
Oc1c(-c2n[nH]c(-c3ccco3)n2)ccc2ccccc12 [′0485, 2-(5-(Furan-2-yl)-1H-1,2,4-triazol-3-yl)naphthalen-1-ol] | 1.697 ± 0.335 | 
Oc1c(-c2nnc(-c3ccco3)o2)ccc2ccccc12 [′0527, 2-(5-(furan-2-yl)-1,3,4-oxadiazol-2-yl)naphthalen-1-ol] | 0.2270 ± 0.0147 | 
Oc1c(-c2n[nH]c3c2CCc2ccoc2-3)ccc2ccccc12 [′1790, 2-(4,5-Dihydro-2H-furo[3,2-g]indazol-3-yl)naphthalen-1-ol] | 4.146 ± 2.397 | 
Cc1nn(C)c(C)c1-c1cc(-c2ccc3ccccc3c2O)n[nH]1 [′2069, 2-(1′,3′,5′-trimethyl-1′H,2H-[3,4′-bipyrazol]-5-yl)naphthalen-1-ol] | 10.46 ± 1.54 | XylE activity in comparison to '8882 at 10 μM: weaker activity compared to '8882; XylE activity in comparison to '8882 at 30 μM: equivalent; EC50: 28.5 µM; EC50 (read-out: logEC50 (converted)): 28.5 µM
Oc1cc2ccccc2cc1-c1cc(-c2ccco2)[nH]n1 [′3918, 3-(5-(Furan-2-yl)-1H-pyrazol-3-yl)naphthalen-2-ol] | 0.2543 ± 0.127 | 
Nc1ncccc1-c1cc(-c2ccco2)[nH]n1 [′3989, 3-(5-(Furan-2-yl)-1H-pyrazol-3-yl)pyridin-2-amine] | 0.2491 ± 0.2546 | 
Oc1ccc(F)cc1-c1cc(-c2ccco2)[nH]n1 [′4082, 4-Fluoro-2-(5-(furan-2-yl)-1H-pyrazol-3-yl)phenol] | 5.884 ± 1.88 | 
Oc1cc(F)ccc1-c1cc(-c2ccco2)[nH]n1 [′4083, 5-Fluoro-2-(5-(furan-2-yl)-1H-pyrazol-3-yl)phenol] | 28.76 ± 9.41 | XylE activity in comparison to '8882 at 10 μM: activity similar to '8882; XylE activity in comparison to '8882 at 30 μM: activity similar to '8882; EC50: 20.9 µM; EC50 (read-out: logEC50 (converted)): 20.9 µM
Cn1ccc(-c2cc(-c3ccc4ccccc4c3O)n[nH]2)n1 [′6699, 2-(1-Methyl-1H,2′H-[3,3′-bipyrazol]-5′-yl)naphthalen-1-ol] | 5.138 ± 4.82 | 
Cn1ncc2cc(-c3cc(-c4ccc5ccccc5c4O)n[nH]3)ccc21 [′6700, 2-(5-(1-methyl-1H-indazol-5-yl)-1H-pyrazol-3-yl)naphthalen-1-ol] | 24.26 ± 3.69 | EC50: 8.18 µM; EC50 (read-out: logEC50 (converted)): 8.18 µM; XylE activity (ability to activate HssRS) in comparison to '8882: roughly equivalent to '8882
c1ccc(-c2cc(-c3ccco3)[nH]n2)nc1 [′7092, 2-(5-(Furan-2-yl)-1H-pyrazol-3-yl)pyridine] | 0.2374 ± 0.1354 | 
Oc1ncccc1-c1cc(-c2ccco2)[nH]n1 [′7268, 3-(5-(Furan-2-yl)-1H-pyrazol-3-yl)pyridin-2-ol] | 0.4793 ± 1.2179 | 
Cn1nccc1-c1cc(-c2ccc3ccccc3c2O)n[nH]1 [′8233, 2-(2′-Methyl-2H,2′H-[3,3′-bipyrazol]-5-yl)naphthalen-1-ol] | 0.5053 ± 0.294 | 
C#Cc1cc(-c2ccc3ccccc3c2O)n[nH]1 [′9128, 2-(5-Ethynyl-1H-pyrazol-3-yl)naphthalen-1-ol] |  | Specifc Activity (nMol/min*mg), data collected at 10 uM: 0.442 ± 0.089^a nMol/min*mg
Oc1c(-c2cc(-c3cc4ccccc4s3)[nH]n2)ccc2ccccc12 [′9130, 2-(5-(Benzo[b]thiophen-2-yl)-1H-pyrazol-3-yl)naphthalen-1-ol] | 1.012 ± 0.064 | 
Oc1c(-c2cc(-c3ccncc3)[nH]n2)ccc2ccccc12 [′9131] | 0.437 ± 0.26 | 
Oc1c(-c2cc(-c3ccsc3)[nH]n2)ccc2ccccc12 [′9132, 2-(5-(thiophen-3-yl)-1H-pyrazol-3-yl)naphthalen-1-ol] | 12.82 ± 1.12 | EC50: 26.2 µM; EC50 (read-out: logEC50 (converted)): 26.2 µM; XylE activity (ability to activate HssRS) in comparison to '8882: lost some activity compared with '8882
Oc1c(-c2cc(-c3cc4ccccc4o3)[nH]n2)ccc2ccccc12 [′9134, 2-(5-(Benzofuran-2-yl)-1H-pyrazol-3-yl)naphthalen-1-ol] | 0.130 ± 0.142 | 
Oc1c(-c2cc(C3CCCO3)[nH]n2)ccc2ccccc12 (stereo not shown) [′9437, 2-(5-(tetrahydrofuran-2-yl)-1H-pyrazol-3-yl)naphthalen-1-ol] | 0.088 ± 0.041 | 
Cc1ccc(-c2cc(-c3ccc4ccccc4c3O)n[nH]2)s1 [′9625, 2-(5-(5-Methylthiophen-2-yl)-1H-pyrazol-3-yl)naphthalen-1-ol] | 8.023 ± 1.065 | EC50: 13.1 µM; EC50 (read-out: logEC50 (converted)): 13.1 µM
Oc1c(-c2cc(-c3cccs3)[nH]n2)ccc2ccccc12 [′9626, 2-(5-(Thiophen-2-yl)-1H-pyrazol-3-yl)naphthalen-1-ol] | 28.86 ± 2.66 | XylE activity in comparison to '8882 at 10 μM: performed well; XylE activity in comparison to '8882 at 30 μM: comparable to '8882; EC50: 19.9 µM; EC50 (read-out: logEC50 (converted)): 19.9 µM
Cc1csc(-c2cc(-c3ccc4ccccc4c3O)n[nH]2)c1 [′9627, 2-(5-(4-Methylthiophen-2-yl)-1H-pyrazol-3-yl)naphthalen-1-ol] | 10.15 ± 3.65 | 
Cc1cnccc1-c1cc(-c2ccc3ccccc3c2O)n[nH]1 [′9767, 2-(5-(3-Methylpyridin-4-yl)-1H-pyrazol-3-yl)naphthalen-1-ol] |  | Specifc Activity (nMol/min*mg), data collected at 10 uM: 1.393 ± 0.392^a nMol/min*mg
C/C=C/c1cc(-c2ccc3ccccc3c2O)n[nH]1 [′9768, (E)-2-(5-(Prop-1-en-1-yl)-1H-pyrazol-3-yl)naphthalen-1-ol] | 6.951 ± 0.983 | 
Cc1sccc1-c1cc(-c2ccc3ccccc3c2O)n[nH]1 [′9769, 2-(5-(2-Methylthiophen-3-yl)-1H-pyrazol-3-yl)naphthalen-1-ol] | 4.922 ± 1.261 | 
